Measurements: patent US12435108B2, “Teixobactin analogue and use thereof” (SUNSHINE LAKE PHARMA CO., LTD., priority 2019, dated 2025)
Where two headings read alike, the source gives them in different places.

What was measured:
MSSA (ATCC29213) [1] = test system: MSSA (ATCC29213)
Description: (§1) For the determination of the minimum inhibitory concentration (MIC), according to the CLSI standard, the minimum inhibitory concentration of 3 ATCC standard strains (2 strains of Staphylococcus aureus and 1 strain of Enterococcus faecium) was tested by two independent repeated experiments. Compounds were diluted two-fold in a 96-well plate from the highest detection concentration of 64 μg/mL. The test plate was placed in a common incubator and incubated at 35±2° C. for 20-24 hours. The growth of bacteria in the wells was observed and recorded. Inoculation method: 5-10 bacterial single colonies from the solid medium plate resuspended in 500 μL of 1.02×CAMHB, and then OD600 was adjusted to 0.1-0.15 with a spectrophotometer; then the bacteria were diluted 300-fold with 1.02×CAMHB to ˜2×10^5 CFU/ml (stepwise dilution, first 10-fold and then 30-fold), and the prepared bacterial inoculum was inoculated in 96-well plate within 15 minutes, the number of inoculated bacteria could be obtained by plate count. Colony count: the inoculated bacteria was diluted with liquid medium from 10^−1 to 10^−3 (such as 100 μL of bacterial inoculum+900 μL of 1.02×CAMHB); 100 μl of the above bacterial dilution was evenly spread on a TSA or TSA II plate, with 2 replicates per dilution. After the medium was absorbed by TSA or TSA II for 10 minutes, the plate was inverted and cultured at 35±2° C. for 24 hours in an incubator. Record of minimum inhibitory concentration and statistics of colony count: the minimum inhibitory concentration of each compound was recorded referring to the CLSI standard; the number of colonies of bacterial inoculum of different dilutions on the TSA or TSA II plate was counted and the amount of bacterial inoculation was calculated. Selection of strain types: MRSA (ATCC43300), MSSA (ATCC29213) and VRE (ATCC700221).

MSSA (ATCC29213) [2] = settings: Test Method 1: agar plate two-fold dilution, CLSI, 35 °C, 18 h
Description: (§2) For the determination of the minimum inhibitory concentration (MIC), according to the CLSI standard, a two-fold dilution method with a plate and a Denlay multi-point inoculator were used to conduct the drug sensitivity test. The test bacteria were enriched with MH broth or brain heart infusion. The drug solution was diluted two-fold with MH broth to prepare various required concentrations, and appropriate amounts were added to the plates respectively. After the MH agar medium was melted, it was quantitatively poured into the plates containing the drug solution and mixed uniformly. The final concentrations of the samples were: 128, 64, 32, 16, 8, 4, 2, 1, 0.5, 0.25, 0.125, 0.063, 0.031, 0.016, 0.008, 0.004 μg/mL, respectively. The test bacteria were inoculated (inoculation amount was 10^4 cfu/point) and then incubated at constant temperature of 35 □. The results were observed after 18 h. The minimum concentration of the drug contained in the sterile growth plate was the minimum inhibitory concentration (MIC). Selection of strain types: MRSA (SA86 and SA88), MSSA (ATCC29213), Enterococcus (ET6) and Streptococcus faecalis (SF).

MRSA (SA86) = settings: agar plate two-fold dilution, CLSI, 35 °C, 18 h
Description: as §2

[3] = test system: Streptococcus faecalis (SF); settings: agar plate two-fold dilution, CLSI, 35 °C, 18 h
Description: as §2

Enterococcus (ET6) = settings: agar plate two-fold dilution, CLSI, 35 °C, 18 h
Description: as §2

[4] = 96-well plate, CAMHB, 35±2 °C, 20-24 hours, highest concentration 64 μg/mL
[5] = Test Method 2: 96-well plate, CAMHB, 35±2 °C, 20-24 hours, highest concentration 64 μg/mL

Description for MRSA (ATCC43300): as §1
Description for VRE (ATCC700221): as §1

SMILES | In vitro antibacterial activity MIC, VRE(ATCC700221) (VRE (ATCC700221); ATCC700221) | In vitro antibacterial activity MIC, MRSA(ATCC43300) (MRSA (ATCC43300); ATCC43300) | In vitro antibacterial activity MIC, MSSA(ATCC29213) (MSSA (ATCC29213) [1]; ATCC29213) | further results
CC[C@H](C)[C@H](NC(=O)[C@@H](Cc1csc2ccccc12)NC)C(=O)N[C@@H](CO)C(=O)N[C@H](CCC(N)=O)C(=O)N[C@@H](C(=O)N[C@H](C(=O)N[C@@H](CO)C(=O)N[C@H]1C(=O)N[C@@H](C)C(=O)NC2(CCCCCC2)C(=O)N[C@@H]([C@@H](C)CC)C(=O)O[C@H]1C)[C@@H](C)CC)[C@@H](C)CC.O=C(O)C(F)(F)F [Example 17] | 8 mg/L | 4 mg/L | 4 mg/L | 
CC[C@H](C)[C@H](NC(=O)[C@@H](Cc1csc2ccccc12)NC)C(=O)N[C@@H](CO)C(=O)N[C@H](CCC(N)=O)C(=O)N[C@@H](C(=O)N[C@H](C(=O)N[C@@H](CO)C(=O)N[C@H]1C(=O)N[C@@H](C)C(=O)NC2(CC2)C(=O)N[C@@H]([C@@H](C)CC)C(=O)O[C@H]1C)[C@@H](C)CC)[C@@H](C)CC.O=C(O)C(F)(F)F [Example 15] | 8 mg/L | 4 mg/L | 4 mg/L | 
CC[C@H](C)[C@H](NC(=O)[C@@H](Cc1ccc(-c2ccc(-c3ccccc3)cc2)cc1)NC)C(=O)N[C@@H](CO)C(=O)N[C@H](CCC(N)=O)C(=O)N[C@@H](C(=O)N[C@H](C(=O)N[C@@H](CO)C(=O)N[C@H]1C(=O)N[C@@H](C)C(=O)NC2(CC2)C(=O)N[C@@H]([C@@H](C)CC)C(=O)O[C@H]1C)[C@@H](C)CC)[C@@H](C)CC.O=C(O)C(F)(F)F [Example 21] | 8 mg/L | 8 mg/L | 8 mg/L | 
CC[C@H](C)[C@H](NC(=O)[C@@H](Cc1ccccc1)NC)C(=O)N[C@@H](CO)C(=O)N[C@H](CCC(N)=O)C(=O)N[C@@H](C(=O)N[C@H](C(=O)N[C@@H](CO)C(=O)N[C@H]1C(=O)N[C@@H](C)C(=O)NC2(CCC2)C(=O)N[C@@H]([C@@H](C)CC)C(=O)O[C@H]1C)[C@@H](C)CC)[C@@H](C)CC.O=C(O)C(F)(F)F [Example 6] |  |  |  | In vitro antibacterial activity MIC, MSSA(ATCC29213) (MSSA (ATCC29213) [2]): 8 mg/L; In vitro antibacterial activity MIC, MRSA SA86 (MRSA (SA86)): 8 mg/L
CC[C@H](C)[C@H](NC(=O)[C@@H](Cc1ccccc1)NC)C(=O)N[C@@H](CO)C(=O)N[C@H](CCC(N)=O)C(=O)N[C@@H](C(=O)N[C@H](C(=O)N[C@@H](CO)C(=O)N[C@H]1C(=O)N[C@@H](C)C(=O)NC2(CCCCCC2)C(=O)N[C@@H]([C@@H](C)CC)C(=O)O[C@H]1C)[C@@H](C)CC)[C@@H](C)CC.O=C(O)C(F)(F)F [Example 9] |  |  |  | In vitro antibacterial activity MIC, MSSA(ATCC29213) (MSSA (ATCC29213) [2]): 4 mg/L; In vitro antibacterial activity MIC, Streptococcus faecalis(SF) [3]: 8 mg/L; In vitro antibacterial activity MIC, MRSA SA86 (MRSA (SA86)): 4 mg/L; In vitro antibacterial activity MIC, Enterococcus (ET6) (Enterococcus (ET6)): 4 mg/L
CC[C@H](C)[C@H](NC(=O)[C@@H](Cc1ccccc1)NC)C(=O)N[C@@H](CO)C(=O)N[C@H](CCC(N)=O)C(=O)N[C@@H](C(=O)N[C@H](C(=O)N[C@@H](CO)C(=O)N[C@H]1C(=O)N[C@@H](C)C(=O)N[C@@]2(C[C@H]2CCO)C(=O)N[C@@H]([C@@H](C)CC)C(=O)O[C@H]1C)[C@@H](C)CC)[C@@H](C)CC.O=C(O)C(F)(F)F [Example 12] |  |  |  | In vitro antibacterial activity MIC, MRSA(ATCC43300) (MRSA (ATCC43300); [4]): 8 mg/L; In vitro antibacterial activity MIC, MSSA(ATCC29213) (MSSA (ATCC29213) [1]; [5]): 8 mg/L
CC[C@H](C)[C@H](NC(=O)[C@@H](Cc1ccc2ccccc2c1)NC)C(=O)N[C@@H](CO)C(=O)N[C@H](CCC(N)=O)C(=O)N[C@@H](C(=O)N[C@H](C(=O)N[C@@H](CO)C(=O)N[C@H]1C(=O)N[C@@H](C)C(=O)NC2(CC2)C(=O)N[C@@H]([C@@H](C)CC)C(=O)O[C@H]1C)[C@@H](C)CC)[C@@H](C)CC.O=C(O)C(F)(F)F [Example 23] | 4 mg/L | 2 mg/L | 4 mg/L | 
CC[C@H](C)[C@H](NC(=O)[C@@H](Cc1ccccc1)NC)C(=O)N[C@@H](CO)C(=O)N[C@H](CCC(N)=O)C(=O)N[C@@H](C(=O)N[C@H](C(=O)N[C@@H](CO)C(=O)N[C@H]1C(=O)N[C@@H](C)C(=O)NC(C)(C)C(=O)N[C@@H]([C@@H](C)CC)C(=O)O[C@H]1C)[C@@H](C)CC)[C@@H](C)CC.O=C(O)C(F)(F)F [Example 26] |  |  |  | In vitro antibacterial activity MIC, VRE(ATCC700221) (VRE (ATCC700221); [4]): >64 mg/L; In vitro antibacterial activity MIC, MRSA(ATCC43300) (MRSA (ATCC43300); [4]): 32 mg/L; In vitro antibacterial activity MIC, MSSA(ATCC29213) (MSSA (ATCC29213) [1]; [5]): 64 mg/L
C=C[C@H]1C[C@]12NC(=O)[C@H](C)NC(=O)[C@H](NC(=O)[C@H](CO)NC(=O)[C@@H](NC(=O)[C@H](NC(=O)[C@@H](CCC(N)=O)NC(=O)[C@H](CO)NC(=O)[C@@H](NC(=O)[C@@H](Cc1csc3ccccc13)NC)[C@@H](C)CC)[C@@H](C)CC)[C@@H](C)CC)[C@H](C)OC(=O)[C@H]([C@@H](C)CC)NC2=O.O=C(O)C(F)(F)F [Example 16] | 4 mg/L | 4 mg/L | 4 mg/L | 
CC[C@H](C)[C@H](NC(=O)[C@@H](Cc1ccc(-c2ccc(Oc3ccccc3)cc2)cc1)NC)C(=O)N[C@@H](CO)C(=O)N[C@H](CCC(N)=O)C(=O)N[C@@H](C(=O)N[C@H](C(=O)N[C@@H](CO)C(=O)N[C@H]1C(=O)N[C@@H](C)C(=O)NC2(CC2)C(=O)N[C@@H]([C@@H](C)CC)C(=O)O[C@H]1C)[C@@H](C)CC)[C@@H](C)CC.O=C(O)C(F)(F)F [Example 25] | 4 mg/L | 4 mg/L | 4 mg/L | 
CC[C@H](C)[C@H](NC(=O)[C@@H](Cc1ccc2ccccc2c1)NC)C(=O)N[C@@H](CO)C(=O)N[C@H](CCC(N)=O)C(=O)N[C@@H](C(=O)N[C@H](C(=O)N[C@@H](CO)C(=O)N[C@H]1C(=O)N[C@@H](C)C(=O)NC2(CCCCCC2)C(=O)N[C@@H]([C@@H](C)CC)C(=O)O[C@H]1C)[C@@H](C)CC)[C@@H](C)CC.O=C(O)C(F)(F)F [Example 24] | 4 mg/L | 4 mg/L | 4 mg/L | 
C=C[C@H]1C[C@]12NC(=O)[C@H](C)NC(=O)[C@H](NC(=O)[C@H](CO)NC(=O)[C@@H](NC(=O)[C@H](NC(=O)[C@@H](CCC(N)=O)NC(=O)[C@H](CO)NC(=O)[C@@H](NC(=O)[C@@H](Cc1ccc3ccccc3c1)NC)[C@@H](C)CC)[C@@H](C)CC)[C@@H](C)CC)[C@H](C)OC(=O)[C@H]([C@@H](C)CC)NC2=O.O=C(O)C(F)(F)F [Example 22] | 4 mg/L | 2 mg/L | 2 mg/L | 
CC[C@H](C)[C@H](NC(=O)[C@@H](Cc1ccc(-c2ccccc2)cc1)NC)C(=O)N[C@@H](CO)C(=O)N[C@H](CCC(N)=O)C(=O)N[C@@H](C(=O)N[C@H](C(=O)N[C@@H](CO)C(=O)N[C@H]1C(=O)N[C@@H](C)C(=O)NC2(CCCCCC2)C(=O)N[C@@H]([C@@H](C)CC)C(=O)O[C@H]1C)[C@@H](C)CC)[C@@H](C)CC.O=C(O)C(F)(F)F [Example 19] | 4 mg/L | 4 mg/L | 4 mg/L | 
CC[C@H](C)[C@H](NC(=O)[C@@H](Cc1ccc(-c2ccccc2)cc1)NC)C(=O)N[C@@H](CO)C(=O)N[C@H](CCC(N)=O)C(=O)N[C@@H](C(=O)N[C@H](C(=O)N[C@@H](CO)C(=O)N[C@H]1C(=O)N[C@@H](C)C(=O)NC2(CC2)C(=O)N[C@@H]([C@@H](C)CC)C(=O)O[C@H]1C)[C@@H](C)CC)[C@@H](C)CC.O=C(O)C(F)(F)F [Example 18] | 2 mg/L | 2 mg/L | 2 mg/L | 
C=C[C@H]1C[C@]12NC(=O)[C@H](C)NC(=O)[C@H](NC(=O)[C@H](CO)NC(=O)[C@@H](NC(=O)[C@H](NC(=O)[C@@H](CCC(N)=O)NC(=O)[C@H](CO)NC(=O)[C@@H](NC(=O)[C@@H](Cc1ccc(-c3ccccc3)cc1)NC)[C@@H](C)CC)[C@@H](C)CC)[C@@H](C)CC)[C@H](C)OC(=O)[C@H]([C@@H](C)CC)NC2=O.O=C(O)C(F)(F)F [Example 20] | 4 mg/L | 4 mg/L | 4 mg/L | 
CC[C@H](C)[C@H](NC(=O)[C@@H](Cc1csc2ccccc12)NC)C(=O)N[C@@H](CO)C(=O)N[C@H](CCC(N)=O)C(=O)N[C@@H](C(=O)N[C@H](C(=O)N[C@@H](CO)C(=O)N[C@H]1C(=O)N[C@@H](C)C(=O)N[C@@]2(C[C@H]2CC(F)F)C(=O)N[C@@H]([C@@H](C)CC)C(=O)O[C@H]1C)[C@@H](C)CC)[C@@H](C)CC.O=C(O)C(F)(F)F [Example 14] | 8 mg/L | 4 mg/L | 4 mg/L | 
